Measured values: US10168342B2, “Lipid probes and uses thereof” (THE SCRIPPS RESEARCH INSTITUTE, priority 2015, dated 2019)
Where two headings read alike, the source gives them in different places.

Key:
[1] = molecular target: T1, AEA-DA lipid probe targets in Neuro2a cells (Mus musculus, UniProt Q8BJ03); conditions: protein Cox15, Neuro2a cells
T1 sequence (Q8BJ03 1-413): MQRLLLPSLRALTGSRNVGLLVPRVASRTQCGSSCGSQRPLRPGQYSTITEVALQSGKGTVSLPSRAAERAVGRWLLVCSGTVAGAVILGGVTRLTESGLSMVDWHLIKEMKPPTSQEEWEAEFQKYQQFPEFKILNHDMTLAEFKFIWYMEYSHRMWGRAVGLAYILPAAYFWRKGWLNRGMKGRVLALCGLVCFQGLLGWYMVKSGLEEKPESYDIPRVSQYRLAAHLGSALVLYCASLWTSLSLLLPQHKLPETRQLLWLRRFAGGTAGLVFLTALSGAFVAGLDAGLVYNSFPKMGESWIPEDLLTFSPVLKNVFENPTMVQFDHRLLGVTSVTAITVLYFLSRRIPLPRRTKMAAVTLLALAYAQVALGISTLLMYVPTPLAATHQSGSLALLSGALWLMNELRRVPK

[2] = molecular target: T2, AEA-DA lipid probe targets in Neuro2a cells (Mus musculus, UniProt Q60930); conditions: Neuro2a cells, AEA-DA probe
T2 sequence (Q60930 1-295): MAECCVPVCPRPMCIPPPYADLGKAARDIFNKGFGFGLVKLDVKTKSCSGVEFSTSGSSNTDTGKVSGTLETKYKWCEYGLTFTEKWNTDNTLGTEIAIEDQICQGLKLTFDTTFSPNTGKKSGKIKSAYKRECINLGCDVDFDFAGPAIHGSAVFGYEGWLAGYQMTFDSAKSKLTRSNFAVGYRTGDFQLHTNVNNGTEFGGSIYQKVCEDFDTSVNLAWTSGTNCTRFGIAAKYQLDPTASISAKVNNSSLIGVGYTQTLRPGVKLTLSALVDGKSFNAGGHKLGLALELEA

[3] = molecular target: AEA-DA lipid probe targets in Neuro2a cells (Mus musculus, UniProt Q9CQ45)
[4] = molecular target: T3, AEA-DA lipid probe targets in Neuro2a cells (Mus musculus, UniProt Q61335)
T3 sequence (Q61335 1-245): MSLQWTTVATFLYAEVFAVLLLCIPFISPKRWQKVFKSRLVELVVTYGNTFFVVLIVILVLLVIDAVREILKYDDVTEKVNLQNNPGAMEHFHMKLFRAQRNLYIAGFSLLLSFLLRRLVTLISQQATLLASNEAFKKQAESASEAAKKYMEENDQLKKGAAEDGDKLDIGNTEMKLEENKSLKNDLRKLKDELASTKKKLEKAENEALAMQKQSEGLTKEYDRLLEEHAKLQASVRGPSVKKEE

[5] = molecular target: T4, AEA-DA lipid probe targets in Neuro2a cells (Mus musculus, UniProt Q91ZN5)
T4 sequence (Q91ZN5 1-431): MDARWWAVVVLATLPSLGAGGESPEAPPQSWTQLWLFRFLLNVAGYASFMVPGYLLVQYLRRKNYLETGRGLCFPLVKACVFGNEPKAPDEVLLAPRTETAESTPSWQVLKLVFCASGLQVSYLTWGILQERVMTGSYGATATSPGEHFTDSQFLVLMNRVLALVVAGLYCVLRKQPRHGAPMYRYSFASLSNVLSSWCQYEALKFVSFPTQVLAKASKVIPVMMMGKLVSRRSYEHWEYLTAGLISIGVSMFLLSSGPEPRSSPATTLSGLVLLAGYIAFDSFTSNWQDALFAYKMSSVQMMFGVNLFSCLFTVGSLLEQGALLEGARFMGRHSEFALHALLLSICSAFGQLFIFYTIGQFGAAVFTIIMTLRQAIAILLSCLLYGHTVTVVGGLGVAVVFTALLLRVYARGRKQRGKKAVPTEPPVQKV

[6] = molecular target: T5, AEA-DA lipid probe targets in Neuro2a cells (Mus musculus, UniProt Q9DC61)
T5 sequence (Q9DC61 34-524): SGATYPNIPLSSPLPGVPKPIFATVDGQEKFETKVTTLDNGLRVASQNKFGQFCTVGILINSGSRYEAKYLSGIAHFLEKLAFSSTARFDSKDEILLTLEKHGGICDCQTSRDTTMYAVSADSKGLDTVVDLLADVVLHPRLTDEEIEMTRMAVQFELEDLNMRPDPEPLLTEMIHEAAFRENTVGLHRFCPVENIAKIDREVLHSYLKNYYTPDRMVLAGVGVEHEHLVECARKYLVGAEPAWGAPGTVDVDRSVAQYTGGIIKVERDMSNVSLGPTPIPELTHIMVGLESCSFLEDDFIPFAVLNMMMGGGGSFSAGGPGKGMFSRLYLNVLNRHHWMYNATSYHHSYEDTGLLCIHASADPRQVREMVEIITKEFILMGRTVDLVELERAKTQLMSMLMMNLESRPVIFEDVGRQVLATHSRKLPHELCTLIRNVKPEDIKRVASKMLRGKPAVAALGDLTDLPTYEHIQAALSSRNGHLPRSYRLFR

[7] = molecular target: T6, AEA-DA lipid probe targets in Neuro2a cells (Mus musculus, UniProt P42125)
T6 sequence (P42125 29-289): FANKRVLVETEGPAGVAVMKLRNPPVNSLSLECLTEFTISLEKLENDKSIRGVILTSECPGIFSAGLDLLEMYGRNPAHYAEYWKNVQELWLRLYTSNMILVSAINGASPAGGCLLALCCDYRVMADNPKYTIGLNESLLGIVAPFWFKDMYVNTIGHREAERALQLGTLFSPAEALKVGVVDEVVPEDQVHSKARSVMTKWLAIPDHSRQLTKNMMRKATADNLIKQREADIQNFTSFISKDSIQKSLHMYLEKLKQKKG

[8] = molecular target: AEA-DA lipid probe targets in Neuro2a cells (Mus musculus, UniProt Q8C0L6)
Sequence of AEA-DA lipid probe targets in Neuro2a cells (Mus musculus, UniProt Q8C0L6) (Q8C0L6 whole entry): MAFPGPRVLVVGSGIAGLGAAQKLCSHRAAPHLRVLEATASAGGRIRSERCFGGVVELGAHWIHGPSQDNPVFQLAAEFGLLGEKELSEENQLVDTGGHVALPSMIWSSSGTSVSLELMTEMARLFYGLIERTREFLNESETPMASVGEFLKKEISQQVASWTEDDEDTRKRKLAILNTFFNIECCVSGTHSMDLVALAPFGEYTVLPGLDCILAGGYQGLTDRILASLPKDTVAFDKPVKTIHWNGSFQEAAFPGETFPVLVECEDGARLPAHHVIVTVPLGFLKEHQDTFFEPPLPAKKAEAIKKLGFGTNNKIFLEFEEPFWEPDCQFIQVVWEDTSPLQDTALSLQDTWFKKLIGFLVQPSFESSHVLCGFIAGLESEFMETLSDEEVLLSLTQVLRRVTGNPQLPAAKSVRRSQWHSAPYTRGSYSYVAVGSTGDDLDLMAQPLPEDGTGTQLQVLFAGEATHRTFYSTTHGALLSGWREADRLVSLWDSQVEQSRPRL

Sequence of AEA-DA lipid probe targets in Neuro2a cells (Mus musculus, UniProt Q9CQ45) (Q9CQ45 31-171): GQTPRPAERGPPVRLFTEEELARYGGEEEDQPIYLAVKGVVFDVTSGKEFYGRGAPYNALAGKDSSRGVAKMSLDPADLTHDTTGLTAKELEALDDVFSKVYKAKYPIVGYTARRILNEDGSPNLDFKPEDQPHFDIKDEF

CCCCC/C=C\C/C=C\C/C=C\C/C=C\CCCC(=O)NCCO [AEA, anandamide, reference compound]
SILAC ratio (AEA-DA competition) ([1]; competitor 200 μM): 1.0 | SILAC ratio, VDAC2 (P45880) ([2]; competitor 200 μM): 1.2 | SILAC ratio, Nenf ([3]; competitor 200 μM): 1.4 | SILAC ratio, Bcap31 ([4]; competitor 200 μM): 2.3 | SILAC ratio, Slc35b2 ([5]; competitor 200 μM): 1.9 | SILAC ratio, Pmpca ([6]; competitor 200 μM): 1.9 | SILAC ratio, Eci1 ([7]; competitor 200 μM): 2.0 | SILAC ratio, Paox ([8]; competitor 200 μM): 7.5

O=C(/C=C/c1cccnc1)NCCCCC1CCN(C(=O)c2ccccc2)CC1 [FK-866, reference compound]
SILAC ratio (AEA-DA competition) ([1]; competitor 25 μM): 0.9 | SILAC ratio, VDAC2 (P45880) ([2]; competitor 25 μM): 1.0 | SILAC ratio, Nenf ([3]; competitor 25 μM): 2.6 | SILAC ratio, Bcap31 ([4]; competitor 25 μM): 1.6 | SILAC ratio, Slc35b2 ([5]; competitor 25 μM): 1.0 | SILAC ratio, Pmpca ([6]; competitor 25 μM): 1.2 | SILAC ratio, Eci1 ([7]; competitor 25 μM): 1.2 | SILAC ratio, Paox ([8]; competitor 25 μM): 3.2

CN1CCN(C(=O)c2c(-c3ccccc3)c3cc([N+](=O)[O-])ccc3n2C)CC1 [KML110, (1-Methyl-5-nitro-3-phenyl-1H-indol-2-yl)(4-methylpiperazin-1-yl)methanone]
SILAC ratio (AEA-DA competition) ([1]; competitor 25 μM): 1.1 | SILAC ratio, Nenf ([3]; competitor 25 μM): 1.7 | SILAC ratio, Bcap31 ([4]; competitor 25 μM): 2.0 | SILAC ratio, Slc35b2 ([5]; competitor 25 μM): 1.3 | SILAC ratio, Pmpca ([6]; competitor 25 μM): 1.6 | SILAC ratio, Eci1 ([7]; competitor 25 μM): 1.5 | SILAC ratio, Paox ([8]; competitor 25 μM): 2.9

CN1CCN(C(=O)c2[nH]c3ccc([N+](=O)[O-])cc3c2-c2ccccc2)CC1 [MJN228, (4-Methylpiperazin-1-yl)(5-nitro-3-phenyl-1H-indol-2-yl)methanone]
SILAC ratio (AEA-DA competition) ([1]; competitor 10 μM): 0.8 | SILAC ratio (AEA-DA competition) ([1]; competitor 25 μM): 1.0 | SILAC ratio (AEA-DA competition) ([1]; competitor 50 μM): 0.7 | SILAC ratio (AEA-DA competition) ([1]; competitor 100 μM): 0.6 | SILAC ratio, VDAC2 (P45880) ([2]; competitor 25 μM): 1.0 | SILAC ratio, Nenf ([3]; competitor 10 μM): 1.3 | SILAC ratio, Nenf ([3]; competitor 25 μM): 1.3 | SILAC ratio, Nenf ([3]; competitor 50 μM): 1.8 | SILAC ratio, Nenf ([3]; competitor 100 μM): 1.7 | SILAC ratio, Bcap31 ([4]; competitor 10 μM): 2.1 | SILAC ratio, Bcap31 ([4]; competitor 25 μM): 2.5 | SILAC ratio, Bcap31 ([4]; competitor 50 μM): 3.8 | SILAC ratio, Bcap31 ([4]; competitor 100 μM): 4.0 | SILAC ratio, Slc35b2 ([5]; competitor 10 μM): 1.0 | SILAC ratio, Slc35b2 ([5]; competitor 25 μM): 1.1 | SILAC ratio, Slc35b2 ([5]; competitor 50 μM): 1.6 | SILAC ratio, Slc35b2 ([5]; competitor 100 μM): 1.2 | SILAC ratio, Pmpca ([6]; competitor 10 μM): 1.2 | SILAC ratio, Pmpca ([6]; competitor 25 μM): 1.4 | SILAC ratio, Pmpca ([6]; competitor 50 μM): 1.4 | SILAC ratio, Pmpca ([6]; competitor 100 μM): 1.5 | SILAC ratio, Eci1 ([7]; competitor 10 μM): 1.4 | SILAC ratio, Eci1 ([7]; competitor 25 μM): 2.0 | SILAC ratio, Eci1 ([7]; competitor 50 μM): 2.4 | SILAC ratio, Eci1 ([7]; competitor 100 μM): 3.8 | SILAC ratio, Paox ([8]; competitor 10 μM): 2.1 | SILAC ratio, Paox ([8]; competitor 25 μM): 3.2 | SILAC ratio, Paox ([8]; competitor 50 μM): 4.5 | SILAC ratio, Paox ([8]; competitor 100 μM): 13.5

C=CCN(C)CCCCCCOc1ccc(C(=O)c2ccc(Br)cc2)c(F)c1 [Ro 48-8071, reference compound]
SILAC ratio (AEA-DA competition) ([1]; competitor 25 μM): 0.8 | SILAC ratio, VDAC2 (P45880) ([2]; competitor 25 μM): 1.0 | SILAC ratio, Nenf ([3]; competitor 25 μM): 0.9 | SILAC ratio, Bcap31 ([4]; competitor 25 μM): 1.4 | SILAC ratio, Slc35b2 ([5]; competitor 25 μM): 0.9 | SILAC ratio, Pmpca ([6]; competitor 25 μM): 0.9 | SILAC ratio, Eci1 ([7]; competitor 25 μM): 0.9 | SILAC ratio, Paox ([8]; competitor 25 μM): 2.4
